Target: S-adenosylmethionine synthase isoform type-2 (Rattus norvegicus, UniProt P18298)
Assay: Inhibition Assay
Details: pH 7.5; 37 °C
Experimental: AdoMet synthetase activity was measured by a radioactive assay using (14C-methyl)-L-methionine as described by Sullivan and Hoffman with minor modification to give better efficiency in the separation of labelled residual methionine and AdoMet formed.

Chain of S-adenosylmethionine synthase isoform type-2 (P18298 whole entry, canonical isoform): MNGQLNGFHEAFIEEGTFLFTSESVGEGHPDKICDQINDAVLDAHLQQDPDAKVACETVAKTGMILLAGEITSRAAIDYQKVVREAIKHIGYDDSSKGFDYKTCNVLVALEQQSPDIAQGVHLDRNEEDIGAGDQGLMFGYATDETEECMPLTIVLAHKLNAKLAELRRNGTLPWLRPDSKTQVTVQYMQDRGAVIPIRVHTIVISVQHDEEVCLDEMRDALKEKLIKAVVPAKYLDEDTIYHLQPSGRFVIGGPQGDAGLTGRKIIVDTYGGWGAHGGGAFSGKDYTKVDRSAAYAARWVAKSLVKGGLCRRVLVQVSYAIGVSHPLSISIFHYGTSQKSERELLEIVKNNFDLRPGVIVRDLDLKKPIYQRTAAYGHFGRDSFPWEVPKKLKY

Structure (SMILES)	IC50 [µM]	Ki [µM]
N[C@@H](C[C@@H]1CS1)C(=O)O [Epithioamino acid analogue, II(a)]	140	100
C[C@H]1S[C@@H]1C[C@H](N)C(=O)O [Epithioamino acid analogue, II(b)]	300	140
C[C@@H]1S[C@@H]1C[C@H](N)C(=O)O [Epithioamino acid analogue, II(c)]	400	140
N[C@@H](C[C@H]1CO1)C(=O)O [Epoxy analogue, I(a)]	50	7
C[C@H]1O[C@H]1C[C@H](N)C(=O)O [Epoxy analogue, I(b)]	100	61
C[C@@H]1O[C@H]1C[C@H](N)C(=O)O [Epoxy analogue, I(c)]	110	105

Reference: BindingDB's records for doi:10.3109/14756369809021481 (Laboratoire De Chimie Bioorganique, 1998)
